Source: patent US10688093B2, “Methods, compositions, and uses of novel Fyn kinase inhibitors” (priority 2015, dated 2020)
pIC50: −log10 of the molar value.

These compounds were tested against full-length recombinant human FYN A (Homo sapiens (Human), UniProt P06241) (assay: ADP-Glo Kinase Assay of FYN kinase inhibition). Details: primary screen, initial compounds.
Assay type: biochemical
Method in brief: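 ADP-Glo read-out of peptide phosphorylation after 90 min RT with 12.5 pmol ATP and 100 pg 12-mer substrate. Enzyme was N-GST full-length human FYN A from insect cells, 3 pg, pre-incubated 30 min with compound, 10 points from 10 μM top, 3-fold steps; IC50 from curve.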

Sequence of full-length recombinant human FYN A (P06241 whole entry): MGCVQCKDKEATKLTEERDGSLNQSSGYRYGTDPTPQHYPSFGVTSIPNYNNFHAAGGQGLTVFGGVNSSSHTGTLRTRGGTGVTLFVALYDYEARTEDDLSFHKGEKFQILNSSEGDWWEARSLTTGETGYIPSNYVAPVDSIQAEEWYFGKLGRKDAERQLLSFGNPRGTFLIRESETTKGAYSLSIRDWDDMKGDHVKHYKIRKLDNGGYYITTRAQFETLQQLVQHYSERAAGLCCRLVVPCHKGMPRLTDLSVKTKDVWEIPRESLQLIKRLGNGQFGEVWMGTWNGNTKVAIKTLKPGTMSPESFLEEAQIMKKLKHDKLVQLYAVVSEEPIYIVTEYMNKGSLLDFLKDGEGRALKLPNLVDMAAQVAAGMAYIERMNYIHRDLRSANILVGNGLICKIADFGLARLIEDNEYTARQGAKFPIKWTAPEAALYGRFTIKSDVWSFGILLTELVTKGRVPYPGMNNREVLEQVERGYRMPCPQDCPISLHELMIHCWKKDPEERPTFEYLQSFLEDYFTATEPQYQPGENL

Structure (SMILES) | pIC50
CN(C)C(=O)c1cccc(-c2cnc3sc(NCC4CCOCC4)nn23)c1 [Compound 268, N,N-dimethyl-3-[2-(tetrahydro-pyran-4-ylmethylamino)imidazo[2,1-b] [1,3,4]thiadiazol-5-yl]benzamide] | 5.56
COc1cncc(-c2cnc3sc(NCC(C)C)nn23)c1 [Compound 270, N-isobutyl-5-(5-methoxy-3-pyridyl)imidazo [2,1-b] [1,3,4]thiadiazol-2-amine] | 5.29
COc1cncc(-c2cnc3sc(NCc4ccc5c(c4)OCO5)nn23)c1 [Compound 271, N-(1,3-benzodioxol-5-ylmethyl)-5-(5-methoxy-3-pyridyl)imidazo [2,1-b] [1,3,4]thiadiazol-2-amine] | 6.35
COc1cc(-c2cnc3ccc(-c4ccc(NC(C)=O)cc4)nn23)ccc1O [Compound 272, N-[4-[3-(4-hydroxy-3-methoxy-phenyl)imidazo [1,2-b]pyridazin-6-yl]phenyl] acetamide] | 6.77
CC(=O)Nc1cccc(-c2cnc3ccc(-c4ccc5c(c4)OCO5)nn23)c1 [Compound 273, N-[3-[6-(1,3-benzodioxol-5-yl)imidazo[1,2-b]pyridazin-3-yl]phenyl] acetamide] | 5.93
CC(=O)Nc1cccc(-c2ccc3ncc(-c4ccc5c(c4)OCO5)n3n2)c1 [Compound 274, N-[3-[3-(1,3-benzodioxol-5-yl)imidazo[1,2-b]pyridazin-6-yl]phenyl] acetamide] | 5.95
CC(=O)Nc1cc(-c2ccc(C(=O)N3CCOCC3)cc2)cn2c(-c3cccc(C(C)=O)c3)cnc12 [Compound 275] | 5.69
CC(=O)Nc1cccc(-c2cnc3ccc(-c4cccc(OC(F)(F)F)c4)nn23)c1 [Compound 276, N-[3-[6-[3-(trifluoromethoxy)phenyl]imidazo [1,2-b]pyridazin-3-yl]phenyl] acetamide] | 5.82
COc1ccc(-c2ccc3ncc(-c4cccc(C(C)=O)c4)n3n2)cc1OC [Compound 277, 1-[3-[6-(3,4-dimethoxyphenyl)imidazo[1,2-b]pyridazin-3-yl]phenyl] ethanone] | 6.19
CC(=O)Nc1cccc(-c2cnc3ccc(-c4ccc(S(C)(=O)=O)cc4)nn23)c1 [Compound 278, N-[3-[6-(4-methylsulfonyl-phenyl)imidazo [1,2-b]pyridazin-3-yl]phenyl] acetamide] | 5.97
CC(=O)Nc1cccc(-c2ccc3ncc(-c4cccc(NC(C)=O)c4)n3n2)c1 [Compound 279, N-[3-[3-(3-acetamidophenyl)imidazo[1,2-b]pyridazin-6-yl]phenyl] acetamide] | 6.26
COc1ccc(CNc2nn3c(-c4cccc(C(=O)N(C)C)c4)cnc3s2)cc1 [Compound 280, 3-[2-[(4-methoxyphenyl)methylamino]imidazo[2,1-b] [1,3,4]thiadiazol-5-yl]-N,N-dimethyl-benzamide] | 5.63
CC(=O)Nc1cccc(-c2ccc3ncc(-c4cccc(C(C)=O)c4)n3n2)c1 [Compound 281, N-[3-[3-(3-acetylphenyl)imidazo[1,2-b]pyridazin-6-yl]phenyl] acetamide] | 6.21
CC(=O)Nc1cccc(-c2cnc3ccc(-c4ccc(C(N)=O)cc4)nn23)c1 [Compound 282, 4-[3-(3-acetamidophenyl)imidazo[1,2-b]pyridazin-6-yl]benzamide] | 6.65
CC(=O)Nc1ccc(-c2ccc3ncc(-c4cccc(O)c4)n3n2)cc1 [Compound 283, N-[4-[3-(3-hydroxyphenyl)imidazo[1,2-b]pyridazin-6-yl]phenyl] acetamide] | 6.29
COc1cc(-c2cnc3sc(NCCc4ccncc4)nn23)cc(OC)c1OC [Compound 284, N-[2-(4-pyridyl)ethyl]-5-(3,4,5-trimethoxy-phenyl)imidazo [2,1-b][1,3,4] thiadiazol-2-amine] | 5.75
CN(C)C(=O)c1cccc(-c2cnc3sc(NCc4ccccc4)nn23)c1 [Compound 286, 3-[2-(benzylamino)imidazo[2,1-d] [1,3,4]thiadiazol-5-yl]-N,N-dimethyl-benzamide] | 5.82
COc1ccc(-c2cnc3sc(NCc4ccncc4)nn23)cn1 [Compound 287, 5-(6-methoxy-3-pyridyl)-N-(4-pyridylmethyl) imidazo[2,1-b] [1,3,4]thiadiazol-2-amine] | 5.59
CC(=O)Nc1cccc(-c2ccc3ncc(-c4cccc(CO)c4)n3n2)c1 [Compound 288, N-[3-[3-[3-(hydroxymethyl)phenyl]imidazo [1,2-b]pyridazin-6-yl]phenyl] acetamide] | 5.79
CN(C)C(=O)c1cccc(-c2cnc3sc(NCc4ccco4)nn23)c1 [Compound 289, 3-[2-(2-furylmethylamino)imidazo[2,1-p] [1,3,4]thiadiazol-5-yl]-N,N-dimethyl-benzamide] | 5.61
CC(=O)Nc1cccc(-c2cnc3ccc(-c4ccc(N(C)C)cc4)nn23)c1 [Compound 290, N-[3-[6-(4-dimethylamino-phenyl)imidazo [1,2-a]pyridazin-3-yl]phenyl] acetamide] | 5.96
CC(=O)c1cccc(-c2cnc3c(NC=O)cc(-c4ccc(C(=O)N5CCOCC5)cc4)cn23)c1 [Compound 291, N-[3-(3-acetylphenyl)-6-[4-(morpholine-4-carbonyl)phenyl]imidazo[1,2-a]pyridin-8-yl]formamide] | 5.52

Structure (SMILES) | pIC50
COc1cc(-c2cnc3ccc(-c4cccc(NC(C)=O)c4)nn23)ccc1O [Compound 292, N-[3-[3-(4-hydroxy-3-methoxy-phenyl)imidazo [1,2-b]pyridazin-6-yl]phenyl] acetamide] | 6.99
CS(=O)(=O)Nc1cccc(-c2ccc3ncc(-c4ccc(CO)cc4)n3n2)c1 [Compound 293, N-[3-[3-[4-(hydroxymethyl)phenyl]imidazo [1,2-b]pyridazin-6-yl]phenyl] methane-sulfonamide] | 6.08
CC(=O)c1cccc(-c2cnc3ccc(-c4cccc(O)c4)nn23)c1 [Compound 294, 1-[3-[6-(3-hydroxyphenyl)imidazo[1,2-a]pyridazin-3-yl]phenyl] ethanone] | 6.00
OCc1ccc(-c2ccc3ncc(-c4cccc(CO)c4)n3n2)cc1 [Compound 295, [4-[3-[3-(hydroxymethyl)phenyl]imidazo [1,2-b]pyridazin-6-yl]phenyl] methanol] | 5.65
NC(=O)c1ccc(-c2ccc3ncc(-c4cccc(CO)c4)n3n2)cc1 [Compound 296, 4-[3-[3-(hydroxymethyl)phenyl]imidazo [1,2-b]pyridazin-6-yl]benzamide] | 5.72
CN(C)CCNC(=O)c1cccc(-c2cnc3ccc(-c4ccc(CO)cc4)nn23)c1 [Compound 297, N-(2-dimethylamino-ethyl)-3-[6-[4-(hydroxymethyl)phenyl]imidazo [1,2-b]pyridazin-3-yl]benzamide] | 5.83
NC(=O)c1cccc(-c2ccc3ncc(-c4cccc(O)c4)n3n2)c1 [Compound 298, 3-[3-(3-hydroxyphenyl)imidazo[1,2-b]pyridazin-6-yl]benzamide] | 6.51
COc1cc(-c2ccc3ncc(-c4ccc(CO)cc4)n3n2)ccc1O [Compound 299, 4-[3-[4-(hydroxymethyl)phenyl]imidazo [1,2-b]pyridazin-6-yl]-2-methoxy-phenol] | 6.65
COc1ccc(-c2cc(=O)c3cc(O)ccc3o2)cc1OC [Compound 300, 2-(3,4-dimethoxy-phenyl)-6-hydroxy-chromen-4-one] | 5.05
OCc1cccc(-c2cnc3ccc(-c4cccnc4)nn23)c1 [Compound 301, [3-[6-(3-pyridyl)imidazo [1,2-b]pyridazin-3-yl]phenyl] methanol] | 5.69
OCc1cccc(-c2cnc3ccc(Cc4ccc(F)cc4)nn23)c1 [Compound 302, [3-[6-[(4-fluorophenyl)methyl]imidazo [1,2-b]pyridazin-3-yl]phenyl] methanol] | 5.40
COc1cccc(-c2ccc3ncc(-c4cccc(CO)c4)n3n2)c1 [Compound 303, [3-[6-(3-methoxyphenyl)imidazo[1,2-b]pyridazin-3-yl]phenyl] methanol] | 5.56
CS(=O)(=O)Nc1cccc(-c2ccc3ncc(-c4ccncc4)n3n2)c1 [Compound 304, N-[3-[3-(4-pyridyl)imidazo [1,2-b]pyridazin-6-yl]phenyl] methane-sulfonamide] | 6.53
CN1CCN(c2ccc(Nc3cc4c(cn3)cc(-c3cccnc3)n4Cc3ccccc3)cc2)CC1 [Compound 305, 1-benzyl-N-[4-(4-methyl-piperazin-1-yl)phenyl]-2-(3-pyridyl)pyrrolo [3,2-c]pyridin-6-amine] | 4.86
c1ccc(Nc2cc3[nH]c(-c4cn[nH]c4)cc3cn2)nc1 [Compound 306, 2-(1H-pyrazol-4-yl)-N-(2-pyridyl)-1H-pyrrolo[3,2-c]pyridin-6-amine] | 5.12
CS(=O)(=O)c1ccc(Nc2cc3[nH]c(-c4cn[nH]c4)cc3cn2)cc1 [Compound 307, N-(4-methyl-sulfonylphenyl)-2-(1H-pyrazol-4-yl)-1H-pyrrolo[3,2-c]pyridin-6-amine] | 5.32
c1ccc(Cn2c(-c3cccnc3)cc3cnc(Nc4ccncn4)cc32)cc1 [Compound 308, 1-benzyl-2-(3-pyridyl)-N-pyrimidin-4-yl-pyrrolo[3,2-c]pyridin-6-amine] | 5.16
COc1cccc(Nc2cc3[nH]c(-c4cn[nH]c4)cc3cn2)c1 [Compound 309, N-(3-methoxyphenyl)-2-(1H-pyrazol-4-yl)-1H-pyrrolo[3,2-c]pyridin-6-amine] | 4.78
COc1ccc(Nc2cc3[nH]c(-c4cn[nH]c4)cc3cn2)cc1OC [Compound 310, N-(3,4-dimethoxy-phenyl)-2-(1H-pyrazol-4-yl)-1H-pyrrolo[3,2-2]pyridin-6-amine] | 4.90
CN1CCN(c2ccc(Nc3cc4c(cn3)cc(-c3ccccc3)n4Cc3ccccc3)cc2)CC1 [Compound 311, 1-benzyl-N-[4-(4-methylpiperazin-1-yl)phenyl]-2-phenyl-pyrrolo[3,2-c]pyridin-6-amine] | 4.82
COc1ccccc1-c1ccc2ncc(-c3ccncc3)n2n1 [Compound 312, 6-(2-methoxyphenyl)-3-(4-pyridyl)imidazo [1,2-b]pyridazine] | 6.23
